US20250215010A1, “DIAZABICYCLOOCTANE DERIVATIVES USEFUL AS MATRIX METALLOPROTEINASE INHIBITORS” (VASA THERAPEUTICS SPOLKA Z OGRANICZONA ODPOWIEDZIALNOSCIA, priority 2022, published 2025)
Like-named read-outs stand apart in the source and are kept apart here.

Legend:
Format in all cases: biochemical
MMP2 = target: T1, MMP2 (Homo sapiens, UniProt P08253); assay: MMP-2 colorimetric inhibition assay (Enzo kit BML-AK408)
T1 sequence (P08253 110-660): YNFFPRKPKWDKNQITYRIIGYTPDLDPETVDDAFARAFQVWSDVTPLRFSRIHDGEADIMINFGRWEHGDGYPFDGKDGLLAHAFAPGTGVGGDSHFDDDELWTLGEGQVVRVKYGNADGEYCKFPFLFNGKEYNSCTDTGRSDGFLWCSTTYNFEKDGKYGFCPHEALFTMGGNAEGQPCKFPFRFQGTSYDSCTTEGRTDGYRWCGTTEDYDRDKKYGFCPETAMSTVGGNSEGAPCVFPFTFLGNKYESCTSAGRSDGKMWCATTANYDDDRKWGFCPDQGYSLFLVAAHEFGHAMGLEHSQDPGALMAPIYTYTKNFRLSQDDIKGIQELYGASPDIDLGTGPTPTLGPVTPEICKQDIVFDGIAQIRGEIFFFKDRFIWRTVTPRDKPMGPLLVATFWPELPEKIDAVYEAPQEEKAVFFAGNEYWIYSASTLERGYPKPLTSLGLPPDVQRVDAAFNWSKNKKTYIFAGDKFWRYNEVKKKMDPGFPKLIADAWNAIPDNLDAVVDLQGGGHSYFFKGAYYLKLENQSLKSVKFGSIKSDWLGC
Procedure: (§1) The inhibitory activities of the compounds of the invention were assessed in 96-well microplate format using MMP1, MMP2, MMP9 and MMP13 colorimetric assay kits and TACE fluorometric assay kit from Enzo Life Sciences, Inc. The inhibitory effect of the compounds of the invention on ADAM10 activity were evaluated in 96-well microplate format using fluorometric assay from AnaSpec, Inc.
(§2) The MMP-2 Colorimetric Drug Discovery Kit (catalog #BML-AK408) is a complete assay system designed to screen MMP-2 inhibitors using a thiopeptide as a chromogenic substrate (Ac-PLG-[2-mercapto-4-methylpentanoyl]-LG-OC2H5). The MMP cleavage site peptide bond is replaced by a thioester bond in the thiopeptide. Hydrolysis of this bond by an MMP produces a sulfhydryl group, which reacts with DTNB [5,5′-dithiobis(2-nitrobenzoic acid), Ellman's reagent] to form 2-nitro-5-thiobenzoic acid, that can be detected spectrophotometrically.
(§3) The inhibitory activities of the compounds of the invention against MMP1, MMP2, MMP9 and MMP13 were tested according to the manufacturer's assay protocols and the absorbance at 415 nm was monitored using the Tecan Infinite® 200 Pro F Nano^+ microplate reader.
(§4) The normalized values were analyzed using GraphPadPrism 9 for Windows (GraphPad Software, San Diego, CA, USA) software by plotting inhibition curves and determining the IC50 values (in nM).

MMP9 = MMP9 (Homo sapiens, UniProt P14780); assay: MMP-9 colorimetric inhibition assay (Enzo kit BML-AK410)
Chain of MMP9 (P14780 94-707): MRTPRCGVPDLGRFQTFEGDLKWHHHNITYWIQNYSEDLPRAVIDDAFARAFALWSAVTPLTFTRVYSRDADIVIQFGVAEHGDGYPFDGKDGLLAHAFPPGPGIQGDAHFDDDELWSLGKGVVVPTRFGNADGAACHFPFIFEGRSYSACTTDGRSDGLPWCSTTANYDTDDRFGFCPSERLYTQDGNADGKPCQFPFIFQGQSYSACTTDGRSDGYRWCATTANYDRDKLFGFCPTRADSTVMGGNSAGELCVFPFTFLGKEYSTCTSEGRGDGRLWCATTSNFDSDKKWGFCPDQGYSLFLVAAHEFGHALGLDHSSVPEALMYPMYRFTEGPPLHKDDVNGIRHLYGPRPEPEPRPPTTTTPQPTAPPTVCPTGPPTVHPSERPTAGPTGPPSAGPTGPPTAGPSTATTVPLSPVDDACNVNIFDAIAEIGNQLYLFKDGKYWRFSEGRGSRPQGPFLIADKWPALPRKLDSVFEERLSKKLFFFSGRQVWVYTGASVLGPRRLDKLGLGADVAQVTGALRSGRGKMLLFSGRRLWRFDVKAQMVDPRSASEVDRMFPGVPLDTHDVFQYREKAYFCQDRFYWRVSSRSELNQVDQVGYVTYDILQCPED
Procedure: as §1
as §2, with “MMP-9” for “MMP-2”, “#BML-AK410)” for “#BML-AK408)”, “screen” for “screen MMP-2”, “inhibitors of matrix metalloproteinase-9” for “inhibitors”
as §3, §4

ADAM17 (TACE) = ADAM17 (TACE) (Homo sapiens, UniProt P78536); assay: TACE fluorometric inhibition assay (Enzo kit BML-AK310)
Chain of ADAM17 (TACE) (P78536 215-477 limits assumed): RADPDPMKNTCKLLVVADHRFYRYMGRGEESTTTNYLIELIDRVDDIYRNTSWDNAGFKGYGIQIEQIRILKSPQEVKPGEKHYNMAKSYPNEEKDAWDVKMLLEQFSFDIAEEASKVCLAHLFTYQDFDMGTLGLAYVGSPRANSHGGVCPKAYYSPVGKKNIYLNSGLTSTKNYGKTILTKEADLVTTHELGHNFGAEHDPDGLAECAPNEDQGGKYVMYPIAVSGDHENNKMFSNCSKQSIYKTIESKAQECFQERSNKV
Procedure: as §1
The TACE Fluorometric Drug Discovery Kit (catalog #BML-AK310) is a complete assay system designed to screen ADAM17 (TACE) inhibitors using a quenched fluorogenic peptide: Mca-PLAQAV-Dpa-RSSSR—NH2. Mca fluorescence is quenched by the Dpa group until cleavage by proteases separates the two moieties leading to an increase in Mca fluorescence.
The inhibitory activity of the compounds of the invention against TACE was tested according to the manufacturer's assay protocol and the fluorescence was monitored at excitation/emission wavelengths=320 nm/420 nm using Tecan Infinite® 200 Pro F Nano^+ microplate reader.
as §4

MMP13 = target: T2, MMP13 (Homo sapiens, UniProt P45452); assay: MMP-13 colorimetric inhibition assay (Enzo kit BML-AK412)
T2 construct: purchased Enzo Life Sciences, Inc. BML-AK412
Procedure: as §1
as §2, with “MMP-13” for “MMP-2”, “#BML-AK412)” for “#BML-AK408)”, “screen” for “screen MMP-2”, “inhibitors of matrix metalloproteinase-13” for “inhibitors”
as §3, §4

MMP1 = target: T3, MMP1 (Homo sapiens, UniProt P03956); assay: MMP-1 colorimetric inhibition assay (Enzo kit BML-AK404)
T3 sequence (P03956 100-269 limits assumed): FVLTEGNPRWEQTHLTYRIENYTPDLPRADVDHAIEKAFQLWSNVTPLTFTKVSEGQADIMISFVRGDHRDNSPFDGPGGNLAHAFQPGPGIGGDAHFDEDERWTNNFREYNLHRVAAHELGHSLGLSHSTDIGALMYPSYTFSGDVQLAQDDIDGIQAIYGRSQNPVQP
Procedure: as §1
as §2, with “MMP-1” for “MMP-2”, “#BML-AK404)” for “#BML-AK408)”, “screen” for “screen MMP-2”, “inhibitors of matrix metalloproteinase-1” for “inhibitors”
as §3, §4

[1] = thiopeptide substrate, absorbance 415 nm, read-out: MMP 2 IC50 class
[2] = thiopeptide substrate, absorbance 415 nm, read-out: MMP 9 IC50 class
[3] = quenched fluorogenic peptide, ex/em 320/420 nm, read-out: TACE IC50 class
[4] = thiopeptide substrate, absorbance 415 nm, read-out: MMP 13 IC50 class
[5] = thiopeptide substrate, absorbance 415 nm, read-out: MMP 1 IC50 class

SMILES	IC50 (MMP2; [1])	IC50 (MMP9; [2])	IC50 (ADAM17 (TACE); [3])	IC50 (MMP13; [4])	IC50 (MMP1; [5])	IC50 (MMP2)	IC50 (MMP9)	IC50 (ADAM17 (TACE))	IC50 (MMP13)	IC50 (MMP1)
COCCOC(=O)N1[C@@H]2CC[C@H]1[C@H](C(=O)NO)N(S(=O)(=O)c1ccc(Oc3cncc(F)c3)nc1)C2 [Example 23, 2-methoxyethyl (1S,2R,5R)-3-((6-((5-fluoropyridin-3-yl)oxy)pyridin-3-yl)-sulfonyl)-2-(hydroxycarbamoyl)-3,8-diaza-bicyclo[3.2.1]octane-8-carboxylate]	< 50 nM	50 to 1000 nM	1000 to 10000 nM	50 to 1000 nM	50 to 1000 nM	–	–	–	–	–
COCCOC(=O)N1[C@@H]2CC[C@H]1[C@H](C(=O)NO)N(S(=O)(=O)c1ccc(Oc3ccc(C(C)(C)O)cc3)nc1)C2 [Example 26, 2-methoxyethyl (1S,2R,5R)-2-(hydroxycarbamoyl)-3-((6-(4-(2-hydroxy-propan-2-yl)-phenoxy)pyridin-3-yl)sulfonyl)-3,8-diazabicyclo[3.2.1]-octane-8-carboxylate]	< 50 nM	50 to 1000 nM	1000 to 10000 nM	50 to 1000 nM	> 10000 nM	–	–	–	–	–
COCCOC(=O)N1[C@@H]2CC[C@H]1[C@H](C(=O)NO)N(S(=O)(=O)c1ccc(Oc3cnc(OC)nc3)nc1)C2 [Example 27, 2-methoxyethyl (1S,2R,5R)-2-(hydroxycarbamoyl)-3-((6-((2-methoxy-pyrimidin-5-yl)oxy)-pyridin-3-yl)-sulfonyl)-3,8-diaza-bicyclo[3.2.1]octane-8-carboxylate]	< 50 nM	50 to 1000 nM	1000 to 10000 nM	50 to 1000 nM	> 10000 nM	–	–	–	–	–
CCn1cc(Oc2ccc(S(=O)(=O)N3C[C@H]4CC[C@@H]([C@@H]3C(=O)NO)N4C(=O)OCCOC)cn2)cn1 [Example 35, 2-methoxyethyl (1S,2R,5R)-3-((6-((1-ethyl-1H-pyrazol-4-yl)-oxy)pyridin-3-yl)-sulfonyl)-2-(hydroxycarbamoyl)-3,8-diaza-bicyclo[3.2.1]octane-8-carboxylate]	< 50 nM	< 50 nM	50 to 1000 nM	< 50 nM	50 to 1000 nM	–	–	–	–	–
COCCOC(=O)N1[C@@H]2CC[C@H]1[C@H](C(=O)NO)N(S(=O)(=O)c1ccc(Oc3cnn(C(C)C)c3)nc1)C2 [Example 37, 2-methoxyethyl (1S,2R,5R)-2-(hydroxycarbamoyl)-3-((6-((1-isopropyl-1H-pyrazol-4-yl)-oxy)pyridin-3-yl)-sulfonyl)-3,8-diazabicyclo-[3.2.1]octane-8-carboxylate]	50 to 1000 nM	50 to 1000 nM	50 to 1000 nM	50 to 1000 nM	1000 to 10000 nM	–	–	–	–	–
COCCOC(=O)N1[C@@H]2CC[C@H]1[C@H](C(=O)NO)N(S(=O)(=O)c1ccc(Oc3cnn(CC(C)C)c3)nc1)C2 [Example 38, 2-methoxyethyl (1S,2R,5R)-2-(hydroxycarbamoyl)-3-((6-((1-isobutyl-1H-pyrazol-4-yl)oxy)pyridin-3-yl)sulfonyl)-3,8-diazabicyclo-[3.2.1]octane-8-carboxylate]	50 to 1000 nM	50 to 1000 nM	50 to 1000 nM	50 to 1000 nM	1000 to 10000 nM	–	–	–	–	–
COCCOC(=O)N1[C@@H]2CC[C@H]1[C@H](C(=O)NO)N(S(=O)(=O)c1ccc(Oc3cnn(-c4ccc(F)cc4)c3)nc1)C2 [Example 40, 2-methoxyethyl (1S,2R,5R)-3-((6-((1-(4-fluorophenyl)-1H-pyrazol-4-yl)oxy)pyridin-3-yl)sulfonyl)-2-(hydroxycarbamoyl)-3,8-diazabicyclo-[3.2.1]octane-8-carboxylate]	< 50 nM	< 50 nM	50 to 1000 nM	< 50 nM	50 to 1000 nM	–	–	–	–	–
COCCOC(=O)N1[C@@H]2CC[C@H]1[C@H](C(=O)NO)N(S(=O)(=O)c1cc(F)c(Oc3cnn(C)c3)c(F)c1)C2 [Example 42, 2-methoxyethyl (1S,2R,5R)-3-((3,5-difluoro-4-((1-methyl-1H-pyrazol-4-yl)oxy)phenyl)sulfonyl)-2-(hydroxycarbamoyl)-3,8-diazabicyclo[3.2.1]octane-8-carboxylate]	50 to 1000 nM	50 to 1000 nM	50 to 1000 nM	50 to 1000 nM	1000 to 10000 nM	–	–	–	–	–
COCCOC(=O)N1[C@@H]2CC[C@H]1[C@H](C(=O)NO)N(S(=O)(=O)c1ccc(Oc3ccc(OCF)cc3)nc1)C2 [Example 43, 2-methoxyethyl (1S,2R,5R)-3-((6-(4-(fluoromethoxy)phenoxy)pyridin-3-yl)sulfonyl)-2-(hydroxycarbamoyl)-3,8-diazabicyclo[3.2.1]octane-8-carboxylate]	< 50 nM	< 50 nM	1000 to 10000 nM	< 50 nM	1000 to 10000 nM	–	–	–	–	–
COCCOC(=O)N1[C@@H]2CC[C@H]1[C@H](C(=O)NO)N(S(=O)(=O)N1CCC(Oc3ccc(Cl)cc3)C1)C2 (stereo partly drawn) [Example 46, 2-methoxyethyl (1S,2R,5R)-3-((3-(4-chloro-phenoxy)-pyrrolidin-1-yl)-sulfonyl)-2-(hydroxy-carbamoyl)-3,8-diazabicyclo-[3.2.1]octane-8-carboxylate]	–	–	–	–	–	50 to 1000 nM	50 to 1000 nM	50 to 1000 nM	50 to 1000 nM	> 10000 nM
COCCOC(=O)N1[C@@H]2CC[C@H]1[C@H](C(=O)NO)N(S(=O)(=O)N1CCC(Oc3ccc(F)cc3)C1)C2 (stereo partly drawn) [Example 47, 2-methoxyethyl (1S,2R,5R)-3-((3-(4-fluoro-phenoxy)-pyrrolidin-1-yl)-sulfonyl)-2-(hydroxy-carbamoyl)-3,8-diazabicyclo-[3.2.1]octane-8-carboxylate]	–	–	–	–	–	1000 to 10000 nM	1000 to 10000 nM	50 to 1000 nM	1000 to 10000 nM	> 10000 nM
COCCOC(=O)N1[C@@H]2CC[C@H]1[C@H](C(=O)NO)N(S(=O)(=O)N1CCC(Oc3ccnc(C(F)(F)F)c3)CC1)C2 [Example 49, 2-methoxyethyl (1S,2R,5R)-2-(hydroxy-carbamoyl)-3-((4-((2-(trifluoro-methyl)pyridin-4-yl)oxy)-piperidin-1-yl)-sulfonyl)-3,8-diazabicyclo-[3.2.1]octane-8-carboxylate]	50 to 1000 nM	50 to 1000 nM	1000 to 10000 nM	50 to 1000 nM	> 10000 nM	–	–	–	–	–
